Laboratory results reported in patent US9796742B2, “Kinase inhibitors” (Respivert Limited, priority 2012, dated 2017).
pIC50: −log10 of the molar value. Where two headings read alike, the source gives them in different places.

Experiments:
GSK3α = GSK3α (Homo sapiens (Human), UniProt P49840); experiment: GSK 3α enzyme inhibition (FRET, Z-LYTE; Method 2); assay type: biochemical
Method: The enzyme inhibitory activities of compounds disclosed herein are determined by FRET using synthetic peptides labelled with both donor and acceptor fluorophores (Z-LYTE, Invitrogen Ltd., Paisley, UK).
The inhibitory activities of compounds of the invention against the GSK 3α enzyme isoform (Invitrogen), are evaluated by determining the level of activation/phosphorylation of the target peptide. The GSK3-α protein (500 ng/mL, 2.5 μL) is mixed with the test compound (2.5 μL at either 4 μg/mL, 0.4 μg/mL, 0.04 μg/mL, or 0.004 μg/mL) for 2 hr at RT. The FRET peptide (8 μM, 2.5 μL), which is a phosphorylation target for GSK3α, and ATP (40 μM, 2.5 μL) are then added to the enzyme/compound mixture and the resulting mixture incubated for 1 hr. Development reagent (protease, 5 μL) is added for 1 hr prior to detection in a fluorescence microplate reader (Varioskan® Flash, ThermoFisher Scientific).
In all cases, the site-specific protease cleaves non-phosphorylated peptide only and eliminates the FRET signal. Phosphorylation levels of each reaction are calculated using the ratio of coumarin emission (donor) over fluorescein emission (acceptor), for which high ratios indicate high phosphorylation and low ratios indicate low phosphorylation levels. The percentage inhibition of each reaction is calculated relative to non-inhibited control and the 50% inhibitory concentration (IC50 value) is then calculated from the concentration-response curve.
This method follows the same steps as Method 1 above, but utilises a shorter period of mixing of the test compound (105 minutes instead of 2 hours) with the GSK3-α protein.

PBMCs = experiment: LPS-induced TNFα/IL-8 release in PBMC cells; assay type: cell-based; settings: Homo sapiens, LPS-stimulated PBMCs
Method: Peripheral blood mononuclear cells (PBMCs) from healthy subjects are separated from whole blood using a density gradient (Lymphoprep, Axis-Shield Healthcare). The PBMCs are seeded in 96 well plates and treated with compounds at the desired concentration for 2 hours before addition of 1 ng/mL LPS (Escherichia Coli 0111:B4 from Sigma Aldrich) for 24 hours under normal tissue culture conditions (37° C., 5% CO2). The supernatant is harvested for determination of IL-8 and TNFα concentrations by sandwich ELISA (Duo-set, R&D systems) and read on the fluorescence microplate reader (Varioskan® Flash, ThermoFisher Scientific). The concentration at 50% inhibition (IC50) of IL-8 and TNFα production is calculated from the dose response curve.

[1] = IL-8, read-out: IC50 Values for Inhibition of Cytokine Release, PBMCs IL-8
[2] = TNFα, read-out: IC50 Values for Inhibition of Cytokine Release, PBMCs TNFα

GSK3α, sequence (P49840 whole entry): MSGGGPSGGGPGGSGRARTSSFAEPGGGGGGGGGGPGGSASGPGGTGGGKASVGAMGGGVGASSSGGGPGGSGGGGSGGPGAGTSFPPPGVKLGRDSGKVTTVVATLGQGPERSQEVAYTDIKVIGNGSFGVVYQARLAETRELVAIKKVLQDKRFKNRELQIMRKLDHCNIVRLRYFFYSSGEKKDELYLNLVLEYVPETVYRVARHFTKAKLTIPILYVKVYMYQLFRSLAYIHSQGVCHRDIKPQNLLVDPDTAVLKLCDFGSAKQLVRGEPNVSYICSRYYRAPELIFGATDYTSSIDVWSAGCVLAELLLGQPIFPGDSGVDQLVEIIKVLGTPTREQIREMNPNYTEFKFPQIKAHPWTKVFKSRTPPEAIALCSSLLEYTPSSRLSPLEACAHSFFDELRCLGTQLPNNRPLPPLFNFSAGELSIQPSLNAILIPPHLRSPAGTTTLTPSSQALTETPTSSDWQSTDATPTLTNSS

SMILES | pIC50 (GSK3α) | pIC50 (PBMCs; [1]) | pIC50 (PBMCs; [2])
COCCOCCOCCOCCOCCOc1cc(Nc2nccc(Oc3ccc(NC(=O)Nc4cc(C(C)C)nn4-c4cccc(CP(C)(C)=O)c4)c4ccccc34)n2)cc(OC)c1 [Example 55, 1-(4-((2-((3-(2,5,8,11,14-Pentaoxahexadecan-16-yloxy)-5-methoxyphenyl)amino)-pyrimidin-4-yl)oxy)naphthalen-1-yl)-3-(1-(3-((dimethylphosphoryl)methyl)phenyl)-3-isopropyl-1H-pyrazol-5-yl)urea] | 5.78 | 8.27 | 
CC(C)(C)c1cc(NC(=O)Nc2ccc(Oc3ccnc(N4CCC[C@@H]4CO)n3)c3ccccc23)n(-c2ccc(P(C)(C)=O)cc2)n1 [Example 27, (R)-1-(3-(tert-Butyl)-1-(4-(dimethylphosphoryl)phenyl)-1H-pyrazol-5-yl)-3-(4-((2-(2-(hydroxymethyl)pyrrolidin-1-yl)pyrimidin-4-yl)oxy)naphthalen-1-yl)urea] | 6.01 | 6.68 | 
CC(C)(C)c1cc(NC(=O)Nc2ccc(Oc3ccnc(Nc4ccc5c(c4)NC(=O)C5)n3)c3ccccc23)n(-c2ccc(P(C)(C)=O)cc2)n1 [Example 14, 1-(3-(tert-Butyl)-1-(4-(dimethylphosphoryl)phenyl)-1H-pyrazol-5-yl)-3-(4-((2-((2-oxoindolin-6-yl)amino)pyrimidin-4-yl)oxy)naphthalen-1-yl)urea] | 6.53 | 7.88 | 8.40
CC(C)(C)c1cc(NC(=O)Nc2ccc(Oc3ccnc(Nc4ccccc4)n3)c3ccccc23)n(-c2ccc(P3(=O)CCCC3)cc2)n1 [Example 8, 1-(3-(tert-Butyl)-1-(4-(1-oxidophospholan-1-yl)phenyl)-1H-pyrazol-5-yl)-3-(4-((2-(phenylamino)pyrimidin-4-yl)oxy)naphthalen-1-yl)urea] | 6.07 | 7.76 | 8.32
CC(C)(C)c1cc(NC(=O)Nc2ccc(Oc3ccnc(Nc4ccc(P(C)(C)=O)cc4)n3)c3ccccc23)n(-c2ccc(P(C)(C)=O)cc2)n1 [Example 25, 1-(3-(tert-Butyl)-1-(4-(dimethylphosphoryl)phenyl)-1H-pyrazol-5-yl)-3-(4-((2-((4-(dimethyl-phosphoryl)phenyl)amino)pyrimidin-4-yl)oxy)naphthalen-1-yl)urea] | 6.79 | 7.84 | 
CC(C)(C)c1cc(NC(=O)Nc2ccc(Oc3ccnc(Nc4ccccc4)n3)c3ccccc23)n(-c2ccc(CP(C)(C)=O)cc2)n1 [Example 6, 1-(3-(tert-Butyl)-1-(4-((dimethylphosphoryl)methyl)phenyl)-1H-pyrazol-5-yl)-3-(4-((2-(phenylamino)pyrimidin-4-yl)oxy)naphthalen-1-yl)urea] | 6.74 | 8.19 | 8.60
COc1ccccc1Nc1nccc(Oc2ccc(NC(=O)Nc3cc(C(C)C)nn3-c3cccc(CP(C)(C)=O)c3)c3ccccc23)n1 [Example 40, 1-(1-(3-((dimethylphosphoryl)methyl)phenyl)-3-isopropyl-1H-pyrazol-5-yl)-3-(4-((2-((2-methoxyphenyl)amino)pyrimidin-4-yl)oxy)naphthalen-1-yl)urea] | 5.05 | 6.98 | 
CC(C)(C)c1cc(NC(=O)Nc2ccc(Oc3ccnc(Nc4cccc(C(=O)NCCN5CCOCC5)c4)n3)c3ccccc23)n(-c2cccc(P(C)(C)=O)c2)n1 [Example 16, 3-((4-((4-(3-(3-(tert-Butyl)-1-(3-(dimethylphosphoryl)phenyl)-1H-pyrazol-5-yl)ureido)-naphthalen-1-yl)oxy)pyrimidin-2-yl)amino)-N-(2-morpholinoethyl)benzamide] | 7.14 | 8.08 | 8.37
CC(C)(C)c1cc(NC(=O)Nc2ccc(Oc3ccnc(Nc4ccccc4)n3)c3ccccc23)n(-c2ccc(P(C)(=O)O)cc2)n1 [Example 19, (4-(3-(tert-Butyl)-5-(3-(4-((2-(phenylamino)pyrimidin-4-yl)oxy)naphthalen-1-yl)ureido)-1H-pyrazol-1-yl)phenyl)(methyl)phosphinic acid] | 7.12 | 6.39 | 
CC(C)(C)c1cc(NC(=O)Nc2ccc(Oc3ccnc(Nc4ccc5c(c4)NC(=O)C5)n3)c3ccccc23)n(-c2cccc(P(C)(C)=O)c2)n1 [Example 11] | 6.69 | 7.79 | 8.57
CC(C)(C)c1cc(NC(=O)Nc2ccc(Oc3ccnc(Nc4ccc5[nH]ncc5c4)n3)c3ccccc23)n(-c2cccc(P(C)(C)=O)c2)n1 [Example 10, 1-(4-((2-((1H-Indazol-5-yl)amino)pyrimidin-4-yl)oxy)naphthalen-1-yl)-3-(3-(tert-butyl)-1-(3-(dimethylphosphoryl)phenyl)-1H-pyrazol-5-yl)urea] | 6.16 | 7.86 | 8.40
CCOP(C)(=O)c1ccc(-n2nc(C(C)(C)C)cc2NC(=O)Nc2ccc(Oc3ccnc(Nc4ccccc4)n3)c3ccccc23)cc1 (centres unmarked) [Example 9, Ethyl (4-(3-(tert-butyl)-5-(3-(4-((2-(phenylamino)pyrimidin-4-yl)oxy)naphthalen-1-yl)-ureido)-1H-pyrazol-1-yl)phenyl)(methyl)phosphinate] | 5.84 | 7.62 | 8.21
Cc1cc(Nc2nccc(Oc3ccc(NC(=O)Nc4cc(C(C)(C)C)nn4-c4cccc(P(C)(C)=O)c4)c4ccccc34)n2)cc2cn[nH]c12 [Example 13, 1-(3-(tert-Butyl)-1-(3-(dimethylphosphoryl)phenyl)-1H-pyrazol-5-yl)-3-(4-((2-((7-methyl-1H-indazol-5-yl)amino)pyrimidin-4-yl)oxy)naphthalen-1-yl)urea] | 6.68 | 8.47 | 8.77
CC(C)(C)c1cc(NC(=O)Nc2ccc(Oc3ccnc(Nc4ccc5onc(N)c5c4)n3)c3ccccc23)n(-c2cccc(P(C)(C)=O)c2)n1 [Example 12] | 7.14 | 8.07 | 8.74
CC(C)(C)c1cc(NC(=O)Nc2ccc(Oc3ccnc(NCCCO)n3)c3ccccc23)n(-c2ccc(P(C)(C)=O)cc2)n1 [Example 31, 1-(3-(tert-Butyl)-1-(4-(dimethylphosphoryl)phenyl)-1H-pyrazol-5-yl)-3-(4-((2-((3-hydroxy-propyl)amino)pyrimidin-4-yl)oxy)naphthalen-1-yl)urea] | 6.68 | 7.04 | 
CC(C)(C)c1cc(NC(=O)Nc2ccc(Oc3ccnc(Nc4cccc(C(=O)NCCN5CCOCC5)c4)n3)c3ccccc23)n(-c2ccc(P(C)(C)=O)cc2)n1 [Example 24, 3-((4-((4-(3-(3-(tert-Butyl)-1-(4-(dimethylphosphoryl)phenyl)-1H-pyrazol-5-yl)ureido)-naphthalen-1-yl)oxy)pyrimidin-2-yl)amino)-N-(2-morpholinoethyl)benzamide] | 6.53 | 7.58 | 
C[Si](C)(C)c1cc(NC(=O)Nc2ccc(Oc3ccnc(Nc4ccccc4)n3)c3ccccc23)n(-c2ccc(P(C)(C)=O)cc2)n1 [Example 5, 1-(1-(4-(Dimethylphosphoryl)phenyl)-3-(trimethylsilyl)-1H-pyrazol-5-yl)-3-(4-((2-(phenyl-amino)pyrimidin-4-yl)oxy)naphthalen-1-yl)urea] | 6.37 | 7.79 | 8.37
